Measurements reported in paper PMC10174618, “Monoterpenoid aryl hydrocarbon receptor allosteric antagonists protect against ultraviolet skin damage in female mice” (Nature Communications, 2023).

How the values were obtained:
Experiment in all cases: biochemical
Parameters in all cases: KINOMEscan scanMAX active site-directed competition binding assay, percent of control, 468 kinases
Settings in all cases: competition binding, percent of control
[1] = target: T1, ABL1(Q252H)-nonphosphorylated (Homo sapiens, UniProt P00519, Q252H)
T1 construct: nonphosphorylated
Procedure: (§1) The KINOMEscan^TM screening platform (scanMAX assay) employs a proprietary active site-directed competition binding assay that quantitatively measures the interactions between test compounds (here 100 μM S-carvone) and 468 human protein kinases. The assay was performed at Eurofins DiscoverX Corp. (Fremont, CA, USA). Blocking protein kinase C (PKC) activity was reported to inhibit the transcription of CYP1A1 but to exert no effect on the nuclear translocation of AhR[26], which was also the case here with carvones. Therefore, we tested whether carvones inhibit PKC catalytic activity. […] We also evaluated the interaction between 100 μM S-carvone and 468 human protein kinases, employing KINOMEscan^TM (scanMAX assay), a proprietary active site-directed competition binding assay. The minimal inhibitory threshold used by the screening platform KINOMEscan^TM is 35% of the control kinase activity. Among 468 kinases tested, 467 were above the 35% cutoff. Tyrosine kinase 2 TK2 (JH2 domain pseudokinase) activity was inhibited to 27% of the control activity, but this kinase is not relevant to the regulation of transcription activity (Fig. 5B; Figure S9). Overall, we excluded the possibility that the effects of carvones on AhR signaling are caused indirectly by the inhibition of the human kinome, particularly PKC.

CDC2L2 = target: T2, CDC2L2 (Homo sapiens, UniProt Q9UQ88)
T2 construct: gene CDK11A
Procedure: as §1

CDK2 = CDK2 (Homo sapiens, UniProt P24941)
Procedure: as §1

CLK2 = CLK2 (Homo sapiens, UniProt P49760)
Procedure: as §1

DMPK = DMPK (Homo sapiens, UniProt Q09013)
Procedure: as §1

DYRK1B = DYRK1B (Homo sapiens, UniProt Q9Y463)
Procedure: as §1

FLT3(ITD,D835V) = FLT3(ITD,D835V) (Homo sapiens, UniProt P36888, D835V/ITD)
Procedure: as §1

IKK-epsilon = target: T3, IKK-epsilon (Homo sapiens, UniProt Q14164)
T3 construct: gene IKBKE
Procedure: as §1

KIT-autoinhibited = KIT-autoinhibited (Homo sapiens, UniProt P10721)
Procedure: as §1

MAP3K2 = MAP3K2 (Homo sapiens, UniProt Q9Y2U5)
Procedure: as §1

MLK3 = target: T4, MLK3 (Homo sapiens, UniProt Q16584)
T4 construct: gene MAP3K11
Procedure: as §1

NEK4 = NEK4 (Homo sapiens, UniProt P51957)
Procedure: as §1

PHKG2 = PHKG2 (Homo sapiens, UniProt P15735)
Procedure: as §1

PIK3CA(I800L) = PIK3CA(I800L) (Homo sapiens, UniProt P42336, I800L)
Procedure: as §1

PKN1 = PKN1 (Homo sapiens, UniProt Q16512)
Procedure: as §1

RIPK2 = RIPK2 (Homo sapiens, UniProt O43353)
Procedure: as §1

[2] = target: T5, RPS6KA5(Kin.Dom.2-C-terminal) (Homo sapiens, UniProt O75582)
T5 construct: Kin.Dom.2-C-terminal
Procedure: as §1

[3] = target: T6, RSK1(Kin.Dom.1-N-terminal) (Homo sapiens, UniProt Q15418)
T6 construct: gene RPS6KA1; Kin.Dom.1-N-terminal
Procedure: as §1

SNRK = SNRK (Homo sapiens, UniProt Q9NRH2)
Procedure: as §1

TLK1 = TLK1 (Homo sapiens, UniProt Q9UKI8)
Procedure: as §1

TNNI3K = TNNI3K (Homo sapiens, UniProt Q59H18)
Procedure: as §1

T4 sequence (Q16584 whole entry): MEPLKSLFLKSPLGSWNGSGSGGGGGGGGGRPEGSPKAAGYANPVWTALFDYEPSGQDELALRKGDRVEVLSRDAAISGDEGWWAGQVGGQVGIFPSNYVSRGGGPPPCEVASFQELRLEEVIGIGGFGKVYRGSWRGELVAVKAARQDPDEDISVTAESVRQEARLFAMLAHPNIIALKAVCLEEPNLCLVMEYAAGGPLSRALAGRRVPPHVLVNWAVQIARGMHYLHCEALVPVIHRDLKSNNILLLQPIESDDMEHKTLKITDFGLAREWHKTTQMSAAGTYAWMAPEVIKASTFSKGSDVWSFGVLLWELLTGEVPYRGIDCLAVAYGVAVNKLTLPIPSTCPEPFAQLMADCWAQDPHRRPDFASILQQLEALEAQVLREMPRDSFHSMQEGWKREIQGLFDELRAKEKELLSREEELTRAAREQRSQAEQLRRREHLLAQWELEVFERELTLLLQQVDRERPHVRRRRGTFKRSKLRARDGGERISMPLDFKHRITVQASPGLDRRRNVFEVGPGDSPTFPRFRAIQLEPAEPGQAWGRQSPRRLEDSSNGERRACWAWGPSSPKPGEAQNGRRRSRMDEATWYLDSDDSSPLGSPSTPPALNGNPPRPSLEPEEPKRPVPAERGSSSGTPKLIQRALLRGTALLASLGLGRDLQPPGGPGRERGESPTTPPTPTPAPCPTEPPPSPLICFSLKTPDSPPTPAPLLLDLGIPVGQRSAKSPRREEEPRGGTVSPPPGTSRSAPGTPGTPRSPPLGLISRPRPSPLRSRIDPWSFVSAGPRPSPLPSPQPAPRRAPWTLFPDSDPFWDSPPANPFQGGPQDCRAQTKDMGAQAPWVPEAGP
Chain of TLK1 (Q9UKI8 whole entry): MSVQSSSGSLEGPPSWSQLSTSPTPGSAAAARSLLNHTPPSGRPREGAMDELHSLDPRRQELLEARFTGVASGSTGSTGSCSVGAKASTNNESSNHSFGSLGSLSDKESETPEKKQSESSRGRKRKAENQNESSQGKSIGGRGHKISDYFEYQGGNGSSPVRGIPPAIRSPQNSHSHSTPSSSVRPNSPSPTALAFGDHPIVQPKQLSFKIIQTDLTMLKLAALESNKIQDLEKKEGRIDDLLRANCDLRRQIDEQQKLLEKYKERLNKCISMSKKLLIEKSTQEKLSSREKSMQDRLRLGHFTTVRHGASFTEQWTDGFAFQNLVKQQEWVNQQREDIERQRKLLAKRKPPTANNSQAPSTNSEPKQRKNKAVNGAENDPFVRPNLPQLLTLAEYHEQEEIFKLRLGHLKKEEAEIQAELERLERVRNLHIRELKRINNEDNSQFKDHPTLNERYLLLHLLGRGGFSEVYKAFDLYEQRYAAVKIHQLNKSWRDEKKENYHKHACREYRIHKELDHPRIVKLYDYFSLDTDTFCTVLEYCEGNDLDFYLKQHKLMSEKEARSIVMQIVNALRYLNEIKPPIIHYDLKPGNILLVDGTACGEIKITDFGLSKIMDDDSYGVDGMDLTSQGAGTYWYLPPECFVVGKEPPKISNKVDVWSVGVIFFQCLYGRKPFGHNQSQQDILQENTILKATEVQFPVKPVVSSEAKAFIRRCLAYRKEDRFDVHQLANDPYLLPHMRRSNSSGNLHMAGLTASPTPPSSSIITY
T6 sequence (Q15418 whole entry): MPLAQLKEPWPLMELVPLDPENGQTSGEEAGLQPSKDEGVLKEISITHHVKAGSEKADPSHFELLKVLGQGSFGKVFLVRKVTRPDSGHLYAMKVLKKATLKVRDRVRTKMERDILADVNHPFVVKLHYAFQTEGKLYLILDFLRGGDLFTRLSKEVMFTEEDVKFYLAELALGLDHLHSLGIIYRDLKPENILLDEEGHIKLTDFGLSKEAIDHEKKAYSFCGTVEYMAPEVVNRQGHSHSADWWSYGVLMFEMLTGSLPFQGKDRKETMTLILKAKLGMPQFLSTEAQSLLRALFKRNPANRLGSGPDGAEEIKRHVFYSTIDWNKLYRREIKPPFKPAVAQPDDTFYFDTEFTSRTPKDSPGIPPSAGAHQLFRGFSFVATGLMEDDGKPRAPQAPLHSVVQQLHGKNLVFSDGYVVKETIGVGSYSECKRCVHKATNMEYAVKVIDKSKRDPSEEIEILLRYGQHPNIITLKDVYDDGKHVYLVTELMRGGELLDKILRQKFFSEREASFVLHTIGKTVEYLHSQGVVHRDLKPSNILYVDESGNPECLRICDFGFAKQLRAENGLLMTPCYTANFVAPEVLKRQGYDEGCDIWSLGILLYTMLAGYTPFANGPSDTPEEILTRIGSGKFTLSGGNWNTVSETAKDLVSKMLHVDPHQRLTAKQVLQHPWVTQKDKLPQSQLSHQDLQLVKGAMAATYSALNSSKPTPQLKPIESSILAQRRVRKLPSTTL
Chain of CLK2 (P49760 whole entry): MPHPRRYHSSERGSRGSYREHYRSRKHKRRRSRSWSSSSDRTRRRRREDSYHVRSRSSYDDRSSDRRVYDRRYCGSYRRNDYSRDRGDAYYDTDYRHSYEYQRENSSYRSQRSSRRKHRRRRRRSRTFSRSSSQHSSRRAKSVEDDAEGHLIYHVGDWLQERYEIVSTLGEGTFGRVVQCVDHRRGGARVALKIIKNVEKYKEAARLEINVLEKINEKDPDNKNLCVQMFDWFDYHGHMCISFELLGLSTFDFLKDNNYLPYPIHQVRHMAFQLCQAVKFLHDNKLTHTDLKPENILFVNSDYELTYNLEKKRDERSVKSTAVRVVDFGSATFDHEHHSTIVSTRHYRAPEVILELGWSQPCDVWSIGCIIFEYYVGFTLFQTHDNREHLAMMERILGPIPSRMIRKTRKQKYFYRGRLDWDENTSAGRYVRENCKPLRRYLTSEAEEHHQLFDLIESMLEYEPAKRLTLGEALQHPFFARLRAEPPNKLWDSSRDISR
Chain of PIK3CA(I800L) (P42336 whole entry I800L): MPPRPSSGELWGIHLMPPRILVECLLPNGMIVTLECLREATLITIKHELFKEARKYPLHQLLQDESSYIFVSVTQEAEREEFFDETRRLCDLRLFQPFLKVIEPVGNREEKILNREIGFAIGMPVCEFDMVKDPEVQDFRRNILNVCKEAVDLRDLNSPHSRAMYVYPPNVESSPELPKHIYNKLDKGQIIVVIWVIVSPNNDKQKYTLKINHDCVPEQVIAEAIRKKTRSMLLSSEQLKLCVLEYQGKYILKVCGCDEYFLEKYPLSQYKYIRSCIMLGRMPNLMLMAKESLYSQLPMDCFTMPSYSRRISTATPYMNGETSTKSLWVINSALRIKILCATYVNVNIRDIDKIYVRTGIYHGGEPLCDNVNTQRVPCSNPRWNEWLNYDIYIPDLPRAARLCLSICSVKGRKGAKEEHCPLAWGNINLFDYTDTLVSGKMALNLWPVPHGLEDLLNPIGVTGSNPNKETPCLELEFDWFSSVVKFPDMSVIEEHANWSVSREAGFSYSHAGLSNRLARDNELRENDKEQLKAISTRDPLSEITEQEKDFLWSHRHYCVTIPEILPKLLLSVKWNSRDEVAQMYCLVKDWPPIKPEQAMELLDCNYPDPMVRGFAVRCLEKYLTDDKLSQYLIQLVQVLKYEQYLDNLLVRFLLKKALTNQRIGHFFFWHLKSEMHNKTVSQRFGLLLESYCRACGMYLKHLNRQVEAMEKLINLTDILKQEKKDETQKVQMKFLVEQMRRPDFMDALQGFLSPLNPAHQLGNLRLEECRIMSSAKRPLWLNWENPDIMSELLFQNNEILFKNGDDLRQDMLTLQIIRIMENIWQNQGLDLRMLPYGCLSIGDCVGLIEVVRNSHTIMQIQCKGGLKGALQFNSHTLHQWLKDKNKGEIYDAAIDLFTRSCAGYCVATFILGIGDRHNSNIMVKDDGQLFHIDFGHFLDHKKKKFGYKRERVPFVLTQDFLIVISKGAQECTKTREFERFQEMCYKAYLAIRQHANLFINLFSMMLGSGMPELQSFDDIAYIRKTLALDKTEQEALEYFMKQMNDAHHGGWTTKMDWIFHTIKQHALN
T3 sequence (Q14164 whole entry): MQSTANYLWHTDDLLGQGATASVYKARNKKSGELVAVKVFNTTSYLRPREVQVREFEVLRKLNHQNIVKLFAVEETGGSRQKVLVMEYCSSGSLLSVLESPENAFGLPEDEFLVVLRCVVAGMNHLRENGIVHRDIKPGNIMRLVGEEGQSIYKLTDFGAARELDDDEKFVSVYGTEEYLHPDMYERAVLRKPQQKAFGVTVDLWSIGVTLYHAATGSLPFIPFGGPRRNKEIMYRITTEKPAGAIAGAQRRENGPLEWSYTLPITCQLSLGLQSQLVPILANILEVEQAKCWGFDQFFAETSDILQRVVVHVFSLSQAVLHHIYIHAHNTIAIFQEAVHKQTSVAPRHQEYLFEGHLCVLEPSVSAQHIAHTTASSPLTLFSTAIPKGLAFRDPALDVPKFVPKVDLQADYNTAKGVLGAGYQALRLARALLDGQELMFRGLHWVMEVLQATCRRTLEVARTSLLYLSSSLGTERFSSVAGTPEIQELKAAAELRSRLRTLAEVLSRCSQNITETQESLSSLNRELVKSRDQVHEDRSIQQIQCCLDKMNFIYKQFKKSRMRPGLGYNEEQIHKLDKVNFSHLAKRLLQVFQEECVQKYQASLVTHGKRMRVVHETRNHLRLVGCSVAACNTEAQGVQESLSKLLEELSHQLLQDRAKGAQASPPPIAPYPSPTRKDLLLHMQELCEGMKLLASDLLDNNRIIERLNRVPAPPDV
Chain of PHKG2 (P15735 whole entry): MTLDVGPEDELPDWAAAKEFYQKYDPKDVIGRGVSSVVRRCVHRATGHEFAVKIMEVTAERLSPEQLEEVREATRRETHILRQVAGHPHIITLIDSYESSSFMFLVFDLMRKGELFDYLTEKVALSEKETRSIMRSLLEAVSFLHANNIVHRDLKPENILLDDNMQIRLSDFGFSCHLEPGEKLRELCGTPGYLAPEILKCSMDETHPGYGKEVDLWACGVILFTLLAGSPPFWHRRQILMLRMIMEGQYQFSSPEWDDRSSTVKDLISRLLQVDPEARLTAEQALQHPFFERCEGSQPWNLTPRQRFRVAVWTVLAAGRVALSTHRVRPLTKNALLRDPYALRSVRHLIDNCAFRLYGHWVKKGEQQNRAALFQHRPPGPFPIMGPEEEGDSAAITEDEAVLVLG

- remaining binding at 100 µM [1]: 66%
- remaining binding at 100 µM (CDC2L2): 82%
- remaining binding at 100 µM (CDK2): 85%
- remaining binding at 100 µM (CLK2): 60%
- remaining binding at 100 µM (DMPK): 94%
- remaining binding at 100 µM (DYRK1B): 100%
- remaining binding at 100 µM (FLT3(ITD,D835V)): 85%
- remaining binding at 100 µM (IKK-epsilon): 52%
- remaining binding at 100 µM (KIT-autoinhibited): 74%
- remaining binding at 100 µM (MAP3K2): 58%
- remaining binding at 100 µM (MLK3): 73%
- remaining binding at 100 µM (NEK4): 97%
- remaining binding at 100 µM (PHKG2): 84%
- remaining binding at 100 µM (PIK3CA(I800L)): 95%
- remaining binding at 100 µM (PKN1): 93%
- remaining binding at 100 µM (RIPK2): 97%
- remaining binding at 100 µM [2]: 85%
- remaining binding at 100 µM [3]: 91%
- remaining binding at 100 µM (SNRK): 75%
- remaining binding at 100 µM (TLK1): 59%
- remaining binding at 100 µM (TNNI3K): 93%
SMILES: C=C(C)[C@H]1CC=C(C)C(=O)C1 [S-carvone]
